Data as given in patent US5861426A, “Nitro compounds of the formula A-Xi -NO2 and their compositions having anti-inflammatory, analgesic and anti-thrombotic activities” (Nicox S.A., priority 1994, dated 1999).

Columns and labels:
isolated rat aorta = assay: Vasodilative activity, inhibition of contraction induced by epinephrine; conditions: in vitro, 10^-5 to 10^-7 molar range
Source text: (§1) Example of the anti-cyclooxygenase (I), platelet anti-aggregating (II) and vasodilative (III) properties of the test compounds tested in vitro at concentrations in the molar range from 10^-5 to 10^-7 of the product in water/alcohol with the addition of small amounts of DMSO (dimethylsulphoxide). The activities are expressed as the potency ratio versus the natural product used as a unit standard, as stated in Table

cyclo-oxygenase = assay: Anti-cyclooxygenase activity; assay type: cell-based; conditions: for anti-cyclooxygenase (I), potency ratio versus natural product: in vitro, 10^-5 to 10^-7 molar range, natural product = 1.0
Protocol: (§2) The activity inhibiting cyclo-oxygenase was determined in isolated cells. Endothelial cells of bovine aorta were used as a source of COX-1 and macrophage line J774.2 as a source of COX-2. The same conditions described by Mitchell et al. (Proc. Nat. Acad. Sci. 90, 11693, 1993) for growth and the viability test were used.
(§3) In brief, the cells were incubated for 30 minutes with scalar concentrations of the test product and the substrate (arachidonic acid) was then added and incubated for another 15 minutes. Enzyme activity was determined radioimmunologically by measuring the formation of 6-keto-PGF 1 alpha. In the case of cell lines J.774.2, the cells were incubated for 12 hours with endotoxin to promote COX-2 formation.
as §1

COX-2 = biological target: T1, COX-2 (Mus musculus, UniProt Q05769); assay: COX-2 inhibition in isolated cells; assay type: cell-based; conditions: macrophage line J774.2 with endotoxin, read-out: COX-2 response, % of the controls with response variability; for remaining activity at 100 µg/mL: 0.1 mg/ml; for remaining activity at 1000 µg/mL: 1.0 mg/ml
T1 construct: endogenous in cells; host or cells: J774.2 macrophages, 12 h with endotoxin
T1 sequence (Q05769 18-604): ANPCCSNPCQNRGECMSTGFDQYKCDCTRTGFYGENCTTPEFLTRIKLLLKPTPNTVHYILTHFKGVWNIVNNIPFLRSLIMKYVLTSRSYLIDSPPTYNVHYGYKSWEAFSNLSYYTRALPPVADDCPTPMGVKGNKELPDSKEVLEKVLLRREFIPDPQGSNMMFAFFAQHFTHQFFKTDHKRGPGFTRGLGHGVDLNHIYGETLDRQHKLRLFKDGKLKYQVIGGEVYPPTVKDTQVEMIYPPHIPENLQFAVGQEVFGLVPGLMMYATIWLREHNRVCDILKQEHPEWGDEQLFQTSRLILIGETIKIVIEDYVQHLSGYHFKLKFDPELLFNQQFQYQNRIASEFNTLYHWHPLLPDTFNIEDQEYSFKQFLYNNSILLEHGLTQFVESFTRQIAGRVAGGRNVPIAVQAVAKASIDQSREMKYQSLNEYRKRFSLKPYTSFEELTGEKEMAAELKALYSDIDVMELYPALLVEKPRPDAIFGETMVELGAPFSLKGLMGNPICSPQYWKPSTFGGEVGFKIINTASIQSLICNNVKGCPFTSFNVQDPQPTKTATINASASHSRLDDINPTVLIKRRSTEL
Protocol: as §2, §3
(§4) Study of the anti-cyclooxygenase (COX-1/COX-2) properties in isolated cells.
(§5) Response expressed as a % of the controls with relative response variability.

nitrosynthetase (NOS) = assay: Nitrosynthetase (NOS) activity induced by LPS in rats; assay type: in vivo, rat; conditions: oral, LPS only = 100
Protocol: The nitrosynthetase inhibition activity induced by lipopolysaccharide (LPS) was determined in rat neutrophils and stomach after administration of one of the test compounds and compared with that obtained after treatment of the suspension vehicle only.
In brief, Wistar rats fasting for 24 hours before treatment were orally administered the test product (10 mg/Kg) and intravenously (caudal vein) administered LPS (5 mg/Kg).
Four hours later the animals were sacrificed and the blood--for neutrophils isolation--and the stomach taken.
Enzyme activity was determined in accordance with the method described by Assreuy et al. (Br. J. Pharmacol. 108, 833, 1993).
Study of the inhibitory properties of the nitrosynthetase (NOS) activity induced by liposaccharide (LPS) in rats using oral doses ranging from 5 to 20 mg/Kg suspended in a carboxymethylcellulose base.

COX-1 = biological target: T2, COX-1 (Bos taurus, UniProt O62664); assay: COX-1 inhibition in isolated cells; assay type: cell-based, bovine; conditions: endothelial cells of bovine aorta, read-out: COX-1 response, % of the controls with response variability; for remaining activity at 1000 µg/mL: 1.0 mg/ml
T2 construct: Endothelial cells of bovine aorta were used as a source of COX-1; endogenous in cells; host or cells: bovine aortic endothelial cells
T2 sequence (O62664 25-600): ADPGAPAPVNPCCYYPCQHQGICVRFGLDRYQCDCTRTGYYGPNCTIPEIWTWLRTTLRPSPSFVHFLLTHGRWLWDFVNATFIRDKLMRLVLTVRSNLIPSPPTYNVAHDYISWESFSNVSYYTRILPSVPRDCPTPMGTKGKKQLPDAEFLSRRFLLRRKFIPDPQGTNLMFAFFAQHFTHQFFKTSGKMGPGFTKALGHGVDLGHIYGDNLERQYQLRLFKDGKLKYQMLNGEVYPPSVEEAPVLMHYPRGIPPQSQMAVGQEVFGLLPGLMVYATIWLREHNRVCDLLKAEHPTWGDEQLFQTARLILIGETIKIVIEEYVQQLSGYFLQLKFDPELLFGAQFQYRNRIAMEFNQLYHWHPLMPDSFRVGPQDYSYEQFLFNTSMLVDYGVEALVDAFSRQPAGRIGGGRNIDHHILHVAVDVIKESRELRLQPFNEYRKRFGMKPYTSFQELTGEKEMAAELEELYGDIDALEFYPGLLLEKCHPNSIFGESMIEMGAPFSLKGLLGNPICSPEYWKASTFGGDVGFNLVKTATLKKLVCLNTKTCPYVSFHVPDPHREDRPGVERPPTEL
Protocol: as §2, §3, §4, §5

Swiss mice = assay: Analgesic activity (Hendershot et al.); assay type: in vivo; conditions: oral 3 to 30 mg/Kg in carboxymethylcellulose, natural product = 1.0
Protocol: (§6) Study of the anti-inflammatory (I) and analgesic (II) properties (pharmacodynamics) and gastrointestinal tolerance (III) (toxicity) of the test compounds after oral administration of doses ranging from 3 to 30 mg/Kg in carboxymethylcellulose suspensions and constructing dose-responsecurves. […] Activities are expressed as the potency ratio compared to the natural product used as a unit standard.

[1] = tested on: human platelets stimulated by thrombin; assay: Platelet anti-aggregating activity in vitro; assay type: cell-based; conditions: 10^-5 to 10^-7 molar range, natural product = 1.0
Source text: as §1

carrageenin-oedema = assay: Anti-inflammatory activity, carrageenin-oedema method; assay type: in vivo; conditions: rats, oral 3 to 30 mg/Kg in carboxymethylcellulose; natural product = 1.0
Protocol: as §6

gastropathy = assay: Gastric tolerance, severity of induced gastropathy; conditions: rats, oral 3 to 30 mg/Kg in carboxymethylcellulose; natural product = 1.0
Protocol: Gastric tolerance was measured by oral administration to rats assessing the severity of the gastropathy induced in accordance with the criteria described by Wallace et al. (Am. J. Physiol. 259, G642, 1990).
Study of the anti-inflammatory (I) and analgesic (II) properties (pharmacodynamics) and gastrointestinal tolerance (III) (toxicity) of the test compounds after oral administration of doses ranging from 3 to 30 mg/Kg in carboxymethylcellulose suspensions and constructing dose-responsecurves.
Activities are expressed as the potency ratio compared to the natural product used as a unit standard. The nitroderivative is that of the shown examples, the natural reference compound is that shown as a reference.

SMILES	vasodilative (III), % of inhibitory action of the vasospasm induced by epinephrine (isolated rat aorta)	analgesic properties (II), potency ratio versus natural reference product (Swiss mice)	anti-inflammatory properties (I), potency ratio versus natural reference product (carrageenin-oedema)	gastrointestinal tolerance (III) (toxicity), potency ratio versus natural reference product (gastropathy)	also measured
CC(=O)Oc1ccccc1C(=O)O [ASPIRIN, acetylsalicylic acid, reference compound]	inactive				
O=C(Cc1ccccc1Nc1c(Cl)cccc1Cl)OCCCCO[N+](=O)[O-] [DICLOFENAC NITROXYBUTYLESTER, reference compound]					direct inhibition of cyclo-oxygenase COX-1 and COX-2 (cyclo-oxygenase; Table 4 data): capable of directly inhibiting cyclo-oxygenase COX-1 and COX-2; remaining activity at 100 µg/mL (COX-2): 68 ± 11%; remaining activity at 1000 µg/mL (COX-2): 41 ± 11%; NOS, neutrophils; inhibition relative to the group treated with LPS only (nitrosynthetase (NOS)): 49; NOS, stomach; inhibition relative to the group treated with LPS only (nitrosynthetase (NOS)): 37; remaining activity at 100 µg/mL (COX-1; 0.1 mg/ml): 45 ± 22%; remaining activity at 1000 µg/mL (COX-1): 24 ± 10%
O=C(O)Cc1ccccc1Nc1c(Cl)cccc1Cl [DICLOFENAC, reference compound]	inactive				
CC(=O)Oc1ccccc1C(=O)OCCOCCO[N+](=O)[O-] [Example 1a, 2-acetoxy-benzoate of 2-[2-(nitroxy)ethoxy]ethyl]	60%	1.1	1.2	0.2	anti-cyclooxygenase (I), potency ratio versus natural product (cyclo-oxygenase): 1.5; platelet anti-aggregating (II), potency ratio versus natural product [1]: 3.0
CC(C(=O)Oc1cccc(CO[N+](=O)[O-])c1)c1cccc(C(=O)c2ccccc2)c1 (stereo not shown) [Example 1c, 2-(3-benzoyl)phenylpropionate of 3-(nitroxymethyl)phenyl]	50%	1.2	1.0	0.1	anti-cyclooxygenase (I), potency ratio versus natural product (cyclo-oxygenase): 1.2; NOS, neutrophils; inhibition relative to the group treated with LPS only (nitrosynthetase (NOS)): 30; NOS, stomach; inhibition relative to the group treated with LPS only (nitrosynthetase (NOS)): 40; platelet anti-aggregating (II), potency ratio versus natural product [1]: 1.8
CC(C)Cc1ccc(C(C)C(=O)OCCOCCO[N+](=O)[O-])cc1 (stereo not shown) [Example 1d]		1.1	1.0	0.1	
CC(C(=O)OCCOCCO[N+](=O)[O-])c1ccc(-c2ccccc2)c(F)c1 (stereo not shown) [Example 1e]		1.0	1.0	0.1	remaining activity at 100 µg/mL (COX-2): 47 ± 4%; remaining activity at 1000 µg/mL (COX-2): 18 ± 2%; remaining activity at 1000 µg/mL (COX-1): 22 ± 3%
O=C(c1ccccc1)c1ccc2n1CCC2C(=O)OCCOCCO[N+](=O)[O-] (stereo not shown) [Example 1f]		1.0	1.0	0.1	
CC(C(=O)OCCOCCO[N+](=O)[O-])c1ccc(C(=O)c2ccccc2)s1 (stereo not shown) [Example 1g]		1.3	0.9	0.1	
COc1ccc2cc(C(C)C(=O)OCCOCCO[N+](=O)[O-])ccc2c1 (stereo not shown) [Example 1h]		1.3	1.3	0.1	
CC(C(=O)O)c1ccc(-c2ccccc2)c(F)c1 (stereo not shown) [FLURBIPROFEN, reference compound]		1.0	1.0		
CC(C)Cc1ccc(C(C)C(=O)O)cc1 (stereo not shown) [IBUPROFEN, reference compound]		1.0	1.0	1.0	
CC(C(=O)O)c1cccc(C(=O)c2ccccc2)c1 (stereo not shown) [KETOPROFEN, 2-(3-benzoyl)phenyl propionic acid, reference compound]	inactive				
O=C(c1ccccc1)c1ccc2n1CCC2C(=O)O (stereo not shown) [KETOROLAC, reference compound]		1.0	1.0	1.0	
CC(C(=O)OCCCCO[N+](=O)[O-])c1cccc(C(=O)c2ccccc2)c1 (stereo not shown) [NITROXYBUTYLKETOPROFEN, reference compound]					NOS, neutrophils; inhibition relative to the group treated with LPS only (nitrosynthetase (NOS)): 55; NOS, stomach; inhibition relative to the group treated with LPS only (nitrosynthetase (NOS)): 35
CC(C(=O)O)c1ccc(C(=O)c2ccccc2)s1 (stereo not shown) [TIAPROFENIC ACID, reference compound]		1.0	1.0	1.0	
